According to ChEMBL document CHEMBL1201862, “PubChem BioAssay data set” (2004):
Active and inactive are the calls of the source.

Columns and labels:
[1] = target: Nucleotide-binding oligomerization domain-containing protein 1 (Homo sapiens, UniProt Q9Y239); assay: NOD1 signaling inhibitors, SAR follow-up, revised (AID 2333); type: functional
HEK293 = assay: cells; conditions: Homo sapiens;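 also: cells exposed to compound for 14 hours overnight before viability readout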
Tumor necrosis factor = Tumor necrosis factor (Homo sapiens, UniProt P01375); assay: TNFa-triggered NF-kB activation inhibitors, SAR follow-up, cell-based, revised (AID 2337); type: functional
[2] = target: Luciferin 4-monooxygenase (Photinus pyralis, UniProt P08659); assay: firefly luciferase enzyme inhibitors, dose response, biochemical, luminescence (AID 1891)
[3] = target: T1, Heat shock factor protein 1 (Mus musculus, UniProt P38532); assay: inhibition of MG132-induced HSE-luciferase signal, confirmation, cell-based, NIH3T3, luminescence, dose retest (AID 2382); type: functional;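 also: NIH3T3 fibroblasts with HSF1-driven luciferase reporter stressed by proteasome inhibitor MG132; luminescence from HSF1-driven luciferase expression after 8 hours of MG132 stress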
T1 sequence (P38532 whole entry): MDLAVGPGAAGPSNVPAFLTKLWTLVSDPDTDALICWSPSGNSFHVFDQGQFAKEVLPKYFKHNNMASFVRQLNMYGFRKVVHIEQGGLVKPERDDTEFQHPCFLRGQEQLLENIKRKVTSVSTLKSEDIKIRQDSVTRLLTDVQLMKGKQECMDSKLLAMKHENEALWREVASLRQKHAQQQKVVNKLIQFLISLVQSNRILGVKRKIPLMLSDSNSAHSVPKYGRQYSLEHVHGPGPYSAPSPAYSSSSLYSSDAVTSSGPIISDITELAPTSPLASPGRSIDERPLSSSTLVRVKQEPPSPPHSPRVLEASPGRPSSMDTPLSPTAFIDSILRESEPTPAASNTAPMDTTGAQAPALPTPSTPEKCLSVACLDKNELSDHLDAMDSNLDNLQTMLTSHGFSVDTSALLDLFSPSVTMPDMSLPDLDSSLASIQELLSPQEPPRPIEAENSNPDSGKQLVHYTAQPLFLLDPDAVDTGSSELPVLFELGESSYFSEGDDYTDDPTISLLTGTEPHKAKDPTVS

[4] = target: Eukaryotic translation initiation factor 4E (Mus musculus, UniProt P63073); assay: eIF4E–eIF4G protein interaction inhibitors, dose response, biochemical, TR-FRET (AID 855); type: functional;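 also: potency for disrupting eIF4E binding to eIF4GI seen as loss of FRET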
[5] = target: Tyrosine-protein phosphatase non-receptor type 11 (Homo sapiens, UniProt Q06124); assay: SHP2 phosphatase inhibition, dose response, selectivity assay for STEP inhibitor project, biochemical (AID 602367); type: functional; conditions: read-out: IC50_Mean
[6] = target: Dual specificity protein phosphatase 3 (Homo sapiens, UniProt P51452); assay: VHR phosphatase inhibition, dose response, selectivity assay for STEP inhibitor project, biochemical (AID 602374); type: functional; conditions: read-out: IC50_Mean
[7] = target: Tyrosine-protein phosphatase non-receptor type 5 (Homo sapiens, UniProt P54829); assay: STEP phosphatase inhibitors, confirmation, biochemical, fluorescence intensity, uHTS hits (AID 602372); type: functional; conditions: read-out: IC50_Mean
Hexokinase HKDC1 = target: T2, Hexokinase HKDC1 (Homo sapiens, UniProt Q2TB90); assay: HKDC1 hexokinase inhibitors, dose response, biochemical, W721R variant (AID 504729); type: functional
T2 sequence (Q2TB90 whole entry): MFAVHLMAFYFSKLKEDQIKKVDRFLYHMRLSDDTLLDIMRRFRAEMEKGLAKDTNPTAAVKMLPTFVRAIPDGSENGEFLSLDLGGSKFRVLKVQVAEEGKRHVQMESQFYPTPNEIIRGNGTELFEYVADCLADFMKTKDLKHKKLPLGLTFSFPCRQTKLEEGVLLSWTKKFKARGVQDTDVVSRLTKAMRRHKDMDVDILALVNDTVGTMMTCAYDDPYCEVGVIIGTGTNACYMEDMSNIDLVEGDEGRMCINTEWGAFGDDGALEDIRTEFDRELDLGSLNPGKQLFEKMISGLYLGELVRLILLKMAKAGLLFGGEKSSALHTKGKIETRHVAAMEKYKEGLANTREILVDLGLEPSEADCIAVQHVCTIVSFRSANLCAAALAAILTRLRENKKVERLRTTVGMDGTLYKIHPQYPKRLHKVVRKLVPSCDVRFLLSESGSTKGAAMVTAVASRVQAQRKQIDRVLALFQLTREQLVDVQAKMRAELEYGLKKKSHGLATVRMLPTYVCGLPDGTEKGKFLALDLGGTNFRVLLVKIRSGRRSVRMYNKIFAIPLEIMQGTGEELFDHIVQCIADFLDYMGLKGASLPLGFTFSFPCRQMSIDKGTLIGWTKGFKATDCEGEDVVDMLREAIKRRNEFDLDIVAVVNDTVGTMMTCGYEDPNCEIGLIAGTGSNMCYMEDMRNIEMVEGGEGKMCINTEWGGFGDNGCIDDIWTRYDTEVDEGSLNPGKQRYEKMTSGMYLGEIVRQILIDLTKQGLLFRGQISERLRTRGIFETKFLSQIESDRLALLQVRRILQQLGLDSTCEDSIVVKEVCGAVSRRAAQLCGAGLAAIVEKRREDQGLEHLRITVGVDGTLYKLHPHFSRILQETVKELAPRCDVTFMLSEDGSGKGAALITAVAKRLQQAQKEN

[8] = target: T3, Histone-lysine N-methyltransferase NSD2 (Homo sapiens, UniProt O96028); type: biochemical
T3 sequence (O96028 whole entry): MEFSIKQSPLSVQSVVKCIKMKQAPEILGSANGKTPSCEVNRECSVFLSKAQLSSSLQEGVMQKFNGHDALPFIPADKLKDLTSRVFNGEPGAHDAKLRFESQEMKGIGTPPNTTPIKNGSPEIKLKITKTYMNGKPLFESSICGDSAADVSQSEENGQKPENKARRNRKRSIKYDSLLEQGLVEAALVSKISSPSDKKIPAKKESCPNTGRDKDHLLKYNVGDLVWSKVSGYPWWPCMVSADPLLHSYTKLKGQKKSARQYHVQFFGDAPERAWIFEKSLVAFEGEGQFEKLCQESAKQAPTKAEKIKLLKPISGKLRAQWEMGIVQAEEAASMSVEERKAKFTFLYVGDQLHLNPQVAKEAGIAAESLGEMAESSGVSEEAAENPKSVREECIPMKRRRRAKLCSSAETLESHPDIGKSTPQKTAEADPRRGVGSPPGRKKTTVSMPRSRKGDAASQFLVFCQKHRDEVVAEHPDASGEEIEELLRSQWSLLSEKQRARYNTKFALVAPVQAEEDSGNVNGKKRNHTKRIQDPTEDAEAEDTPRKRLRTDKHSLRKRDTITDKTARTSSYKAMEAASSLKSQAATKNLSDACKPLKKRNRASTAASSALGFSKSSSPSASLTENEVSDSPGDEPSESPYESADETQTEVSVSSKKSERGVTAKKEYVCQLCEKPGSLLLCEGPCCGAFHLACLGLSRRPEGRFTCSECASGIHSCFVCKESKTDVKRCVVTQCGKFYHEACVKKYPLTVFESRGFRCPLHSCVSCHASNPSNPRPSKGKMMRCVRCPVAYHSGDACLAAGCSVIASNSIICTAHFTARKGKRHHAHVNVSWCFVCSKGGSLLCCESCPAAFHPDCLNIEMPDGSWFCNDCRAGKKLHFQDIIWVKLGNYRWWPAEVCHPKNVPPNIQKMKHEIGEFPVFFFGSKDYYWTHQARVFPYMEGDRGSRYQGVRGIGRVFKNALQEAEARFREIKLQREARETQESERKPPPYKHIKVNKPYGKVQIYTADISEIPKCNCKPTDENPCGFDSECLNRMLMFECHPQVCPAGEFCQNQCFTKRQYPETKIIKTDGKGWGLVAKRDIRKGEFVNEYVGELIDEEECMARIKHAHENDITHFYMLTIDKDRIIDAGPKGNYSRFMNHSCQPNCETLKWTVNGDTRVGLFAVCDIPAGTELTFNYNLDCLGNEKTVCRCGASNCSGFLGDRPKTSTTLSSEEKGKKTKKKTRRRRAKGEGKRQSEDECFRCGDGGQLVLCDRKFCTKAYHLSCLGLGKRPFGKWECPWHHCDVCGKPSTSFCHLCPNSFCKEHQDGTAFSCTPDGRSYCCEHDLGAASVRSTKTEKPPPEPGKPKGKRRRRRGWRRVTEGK

[9] = target: T4, DNA repair protein RAD52 homolog (Homo sapiens, UniProt P43351); type: functional, biochemical
T4 sequence (P43351 whole entry): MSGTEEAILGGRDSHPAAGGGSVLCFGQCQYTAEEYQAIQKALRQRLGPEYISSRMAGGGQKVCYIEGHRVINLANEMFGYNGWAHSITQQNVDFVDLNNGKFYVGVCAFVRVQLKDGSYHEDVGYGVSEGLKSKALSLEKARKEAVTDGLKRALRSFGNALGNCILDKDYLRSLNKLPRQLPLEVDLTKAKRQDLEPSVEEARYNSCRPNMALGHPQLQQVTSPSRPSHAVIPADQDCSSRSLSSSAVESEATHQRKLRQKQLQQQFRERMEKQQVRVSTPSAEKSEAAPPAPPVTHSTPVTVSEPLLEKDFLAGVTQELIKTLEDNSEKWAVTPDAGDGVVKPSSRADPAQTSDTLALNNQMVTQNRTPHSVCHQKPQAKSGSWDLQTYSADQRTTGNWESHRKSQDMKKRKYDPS

[10] = cytotoxicity toward NIH3T3 fibroblasts, dose response, counter-screen, cell-based, ATP luminescence, mouse fibroblasts (AID 2010); type: functional;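 also: cells exposed to compound for about 90 hours before reading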
[11] = inhibitors of SNCA 5'UTR-driven reporter translation, confirmation, H4 neuroglioma cells, luminescence (AID 1988); type: functional, cell-based
[12] = Luminescence Cell-Based Dose Response HTS to Identify Inhibitors of 5'UTR Stem-Loop Driven Prion Protein mRNA Translation in H4 Neuroglioblastoma Cells. [Related pubchem assays: 1827 (Project Summary), 1813 (Primary HTS)]; type: functional
[13] = target: Neurotensin receptor type 1 (Homo sapiens, UniProt P30989); type: functional;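 also: Image-based confirmatory dose-response assay measuring agonist activity at NTR1; NTR1-expressing U2OS osteosarcoma cells imaged for beta-arrestin GFP spot formation; agonist potency where compounds increase beta-arrestin recruitment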
[14] = cytotoxicity in HEK-293T cells, dose response, cytotoxicity control for TCR NF-kB inhibitor project, luminescence, T-cell screen hits (AID 489026); type: functional, cell-based;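 also: cells exposed to compound about 14 hours before the viability readout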
[15] = inhibitors of firefly luciferase expression or activity, dose response, H4 neuroglioma cells, luminescence (AID 1990); type: functional, cell-based
[16] = target: T5, Calpain-2 catalytic subunit (Sus scrofa, UniProt P43367); assay: pig calpain II inhibitor potency, dose response, biochemical, fluorogenic peptide substrate (AID 1420); type: functional
T5 sequence (P43367 whole entry): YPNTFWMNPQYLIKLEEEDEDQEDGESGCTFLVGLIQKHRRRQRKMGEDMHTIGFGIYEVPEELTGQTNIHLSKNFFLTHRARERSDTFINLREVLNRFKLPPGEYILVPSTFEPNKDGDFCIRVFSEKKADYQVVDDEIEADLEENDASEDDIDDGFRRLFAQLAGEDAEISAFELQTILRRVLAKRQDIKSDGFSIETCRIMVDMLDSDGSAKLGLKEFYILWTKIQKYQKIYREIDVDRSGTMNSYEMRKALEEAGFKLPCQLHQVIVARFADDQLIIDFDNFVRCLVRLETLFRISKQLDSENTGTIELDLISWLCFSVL

[17] = NIH-3T3 fibroblast cytotoxicity, dose response, cytotoxicity control, cell-based, fluorescence, Alamar Blue, secondary assay (AID 2327); type: functional;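 also: NIH-3T3 mouse fibroblasts cultured with fluconazole at 8 µg/mL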
[18] = inhibitors of intracellular T. cruzi replication, confirmation, NIH3T3 host cells, beta-gal luminescence (AID 2044); type: functional, cell-based;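 also: intracellular parasites grown in NIH/3T3 mouse fibroblasts as host cells; luminescent beta-galactosidase reporter signal from transgenic T. cruzi replicating inside host cells; inhibitors lower the luminescence signal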
[19] = target: T6, Voltage-gated N-type calcium channel alpha-1B subunit/Amyloid beta A4 precursor protein-binding family A member 1 (Homo sapiens, UniProt Q00975+Q02410); assay: disruptors of Mint-PDZ/N-type channel peptide interaction – biochemical, HTRF, set 2, SAR follow-up (AID 434980); type: functional
[20] = target: T6, Voltage-gated N-type calcium channel alpha-1B subunit/Amyloid beta A4 precursor protein-binding family A member 1; assay: disruptors of Mint-PDZ/N-type channel peptide interaction – biochemical, HTRF, SAR follow-up (AID 2489); type: functional
[21] = Fluorescence-based cell-based high throughput dose response assay for inhibitors of the interaction of nucleotide-binding oligomerization domain containing 2 (NOD2) and the receptor-interacting serine-threonine kinase 2 (RIPK2).; type: functional; conditions: Homo sapiens
[22] = Luminescence Cell-Based Dose Retest to Confirm Inhibitors of Cancer Stem Cells. [Related pubchem assays (depositor defined):AID2717, AID2721]; type: functional; conditions: Homo sapiens
[23] = target: DNA dC->dU-editing enzyme APOBEC-3G (Homo sapiens, UniProt Q9HC16); assay: Dose Response confirmation of small molecule APOBEC3G DNA Deaminase Inhibitors via a fluorescence-based single-stranded DNA deaminase assay. [Related pubchem assays (depositor defined):AID493012, AID493028]; type: functional

T6 sequence (Q00975 whole entry): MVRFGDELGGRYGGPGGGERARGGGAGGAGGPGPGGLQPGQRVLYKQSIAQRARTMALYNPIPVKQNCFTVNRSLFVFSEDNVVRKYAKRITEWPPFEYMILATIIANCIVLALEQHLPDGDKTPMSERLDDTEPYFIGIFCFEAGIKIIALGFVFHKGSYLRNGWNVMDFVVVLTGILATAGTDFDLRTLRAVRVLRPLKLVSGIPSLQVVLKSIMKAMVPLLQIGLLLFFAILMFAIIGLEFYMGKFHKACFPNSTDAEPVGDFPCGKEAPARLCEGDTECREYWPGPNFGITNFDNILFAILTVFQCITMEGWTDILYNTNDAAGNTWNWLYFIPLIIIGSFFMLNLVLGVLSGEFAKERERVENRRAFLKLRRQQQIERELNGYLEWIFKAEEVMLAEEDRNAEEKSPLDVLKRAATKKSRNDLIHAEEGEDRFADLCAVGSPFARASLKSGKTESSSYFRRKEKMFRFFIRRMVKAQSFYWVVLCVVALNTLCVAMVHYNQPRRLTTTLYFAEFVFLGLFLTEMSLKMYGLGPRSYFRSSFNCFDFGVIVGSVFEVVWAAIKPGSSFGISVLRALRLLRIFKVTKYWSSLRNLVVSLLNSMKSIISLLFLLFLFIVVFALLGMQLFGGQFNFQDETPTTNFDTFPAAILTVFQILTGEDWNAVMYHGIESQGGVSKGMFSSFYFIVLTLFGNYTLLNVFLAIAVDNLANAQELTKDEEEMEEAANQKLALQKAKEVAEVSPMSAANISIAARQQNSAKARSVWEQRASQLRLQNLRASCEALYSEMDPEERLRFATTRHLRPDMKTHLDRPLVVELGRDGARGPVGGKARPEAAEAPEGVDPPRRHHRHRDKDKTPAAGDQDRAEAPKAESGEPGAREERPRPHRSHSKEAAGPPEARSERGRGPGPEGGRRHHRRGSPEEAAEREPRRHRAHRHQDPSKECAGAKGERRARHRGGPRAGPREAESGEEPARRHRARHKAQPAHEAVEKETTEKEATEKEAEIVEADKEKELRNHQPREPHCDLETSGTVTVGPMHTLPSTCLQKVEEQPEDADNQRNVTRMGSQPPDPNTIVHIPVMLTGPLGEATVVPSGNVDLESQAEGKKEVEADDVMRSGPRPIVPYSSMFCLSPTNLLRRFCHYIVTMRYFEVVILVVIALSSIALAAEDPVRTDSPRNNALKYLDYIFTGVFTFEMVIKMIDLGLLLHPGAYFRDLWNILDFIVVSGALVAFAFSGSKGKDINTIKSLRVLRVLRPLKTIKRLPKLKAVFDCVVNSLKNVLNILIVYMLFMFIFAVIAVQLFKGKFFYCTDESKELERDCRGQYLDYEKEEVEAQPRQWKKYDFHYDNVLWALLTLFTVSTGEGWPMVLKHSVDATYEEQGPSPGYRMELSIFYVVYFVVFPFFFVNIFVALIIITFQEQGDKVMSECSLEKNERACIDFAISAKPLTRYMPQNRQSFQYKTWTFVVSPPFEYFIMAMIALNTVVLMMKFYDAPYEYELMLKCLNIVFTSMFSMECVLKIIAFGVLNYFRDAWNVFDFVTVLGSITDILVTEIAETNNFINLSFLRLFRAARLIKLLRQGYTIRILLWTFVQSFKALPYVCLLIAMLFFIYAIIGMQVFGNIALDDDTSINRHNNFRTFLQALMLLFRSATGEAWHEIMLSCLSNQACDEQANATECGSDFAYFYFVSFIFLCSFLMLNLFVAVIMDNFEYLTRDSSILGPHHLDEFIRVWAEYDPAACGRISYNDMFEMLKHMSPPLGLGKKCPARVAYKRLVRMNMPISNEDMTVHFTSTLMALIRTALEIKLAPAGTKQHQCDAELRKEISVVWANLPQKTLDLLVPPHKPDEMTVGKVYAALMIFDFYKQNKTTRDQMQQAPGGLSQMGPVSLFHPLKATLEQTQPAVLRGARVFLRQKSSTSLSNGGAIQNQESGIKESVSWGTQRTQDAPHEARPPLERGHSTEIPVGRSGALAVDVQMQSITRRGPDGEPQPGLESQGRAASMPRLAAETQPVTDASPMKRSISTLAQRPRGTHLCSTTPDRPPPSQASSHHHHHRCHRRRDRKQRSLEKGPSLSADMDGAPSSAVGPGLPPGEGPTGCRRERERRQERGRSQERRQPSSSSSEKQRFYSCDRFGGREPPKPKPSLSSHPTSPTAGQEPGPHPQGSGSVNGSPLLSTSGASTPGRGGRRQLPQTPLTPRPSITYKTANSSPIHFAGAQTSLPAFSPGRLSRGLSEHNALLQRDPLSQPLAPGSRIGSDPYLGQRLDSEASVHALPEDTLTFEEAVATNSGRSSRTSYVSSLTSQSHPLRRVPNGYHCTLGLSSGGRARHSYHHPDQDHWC
T6 sequence (Q02410 whole entry): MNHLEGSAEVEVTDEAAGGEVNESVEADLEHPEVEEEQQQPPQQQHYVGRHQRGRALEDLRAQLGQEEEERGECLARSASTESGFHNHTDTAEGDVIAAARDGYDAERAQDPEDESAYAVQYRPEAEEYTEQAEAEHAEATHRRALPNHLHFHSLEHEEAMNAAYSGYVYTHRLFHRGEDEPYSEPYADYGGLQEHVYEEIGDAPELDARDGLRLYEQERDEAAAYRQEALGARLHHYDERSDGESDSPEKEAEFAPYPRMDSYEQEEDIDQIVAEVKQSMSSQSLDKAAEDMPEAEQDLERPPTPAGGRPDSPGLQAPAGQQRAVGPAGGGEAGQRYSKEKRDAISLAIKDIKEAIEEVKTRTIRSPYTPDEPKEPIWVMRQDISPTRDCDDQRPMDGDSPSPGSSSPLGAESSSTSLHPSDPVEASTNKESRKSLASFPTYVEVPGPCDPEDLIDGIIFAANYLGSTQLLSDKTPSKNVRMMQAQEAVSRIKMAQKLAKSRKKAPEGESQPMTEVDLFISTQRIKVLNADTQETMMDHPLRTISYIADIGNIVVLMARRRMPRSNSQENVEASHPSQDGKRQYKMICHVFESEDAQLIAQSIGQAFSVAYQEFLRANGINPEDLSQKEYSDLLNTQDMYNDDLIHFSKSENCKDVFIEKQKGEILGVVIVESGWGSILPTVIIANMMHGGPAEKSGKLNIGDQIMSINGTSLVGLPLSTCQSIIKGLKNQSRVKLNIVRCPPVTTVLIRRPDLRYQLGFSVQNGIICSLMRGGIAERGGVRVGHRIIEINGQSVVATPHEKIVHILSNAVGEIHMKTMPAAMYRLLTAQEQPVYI
Chain of Neurotensin receptor type 1 (P30989 whole entry): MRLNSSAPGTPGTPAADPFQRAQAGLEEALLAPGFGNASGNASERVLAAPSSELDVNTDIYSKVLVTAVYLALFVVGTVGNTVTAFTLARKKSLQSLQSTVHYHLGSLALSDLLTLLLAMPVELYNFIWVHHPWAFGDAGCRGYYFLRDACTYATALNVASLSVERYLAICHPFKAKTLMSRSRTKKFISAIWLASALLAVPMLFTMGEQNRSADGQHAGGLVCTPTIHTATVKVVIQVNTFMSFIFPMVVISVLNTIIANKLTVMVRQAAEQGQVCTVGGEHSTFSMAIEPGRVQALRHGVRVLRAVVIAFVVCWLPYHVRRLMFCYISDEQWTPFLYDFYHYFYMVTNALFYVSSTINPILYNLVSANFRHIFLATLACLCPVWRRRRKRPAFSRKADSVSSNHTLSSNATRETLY
Chain of Tumor necrosis factor (P01375 whole entry): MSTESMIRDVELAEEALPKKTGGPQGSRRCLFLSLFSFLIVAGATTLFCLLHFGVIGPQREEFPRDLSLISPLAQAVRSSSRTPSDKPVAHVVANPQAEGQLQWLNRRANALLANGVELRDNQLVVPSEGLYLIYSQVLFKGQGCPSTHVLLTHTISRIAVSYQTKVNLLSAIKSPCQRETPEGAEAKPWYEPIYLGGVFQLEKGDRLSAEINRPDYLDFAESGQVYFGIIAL
Chain of Nucleotide-binding oligomerization domain-containing protein 1 (Q9Y239 whole entry, the tested form may be a part): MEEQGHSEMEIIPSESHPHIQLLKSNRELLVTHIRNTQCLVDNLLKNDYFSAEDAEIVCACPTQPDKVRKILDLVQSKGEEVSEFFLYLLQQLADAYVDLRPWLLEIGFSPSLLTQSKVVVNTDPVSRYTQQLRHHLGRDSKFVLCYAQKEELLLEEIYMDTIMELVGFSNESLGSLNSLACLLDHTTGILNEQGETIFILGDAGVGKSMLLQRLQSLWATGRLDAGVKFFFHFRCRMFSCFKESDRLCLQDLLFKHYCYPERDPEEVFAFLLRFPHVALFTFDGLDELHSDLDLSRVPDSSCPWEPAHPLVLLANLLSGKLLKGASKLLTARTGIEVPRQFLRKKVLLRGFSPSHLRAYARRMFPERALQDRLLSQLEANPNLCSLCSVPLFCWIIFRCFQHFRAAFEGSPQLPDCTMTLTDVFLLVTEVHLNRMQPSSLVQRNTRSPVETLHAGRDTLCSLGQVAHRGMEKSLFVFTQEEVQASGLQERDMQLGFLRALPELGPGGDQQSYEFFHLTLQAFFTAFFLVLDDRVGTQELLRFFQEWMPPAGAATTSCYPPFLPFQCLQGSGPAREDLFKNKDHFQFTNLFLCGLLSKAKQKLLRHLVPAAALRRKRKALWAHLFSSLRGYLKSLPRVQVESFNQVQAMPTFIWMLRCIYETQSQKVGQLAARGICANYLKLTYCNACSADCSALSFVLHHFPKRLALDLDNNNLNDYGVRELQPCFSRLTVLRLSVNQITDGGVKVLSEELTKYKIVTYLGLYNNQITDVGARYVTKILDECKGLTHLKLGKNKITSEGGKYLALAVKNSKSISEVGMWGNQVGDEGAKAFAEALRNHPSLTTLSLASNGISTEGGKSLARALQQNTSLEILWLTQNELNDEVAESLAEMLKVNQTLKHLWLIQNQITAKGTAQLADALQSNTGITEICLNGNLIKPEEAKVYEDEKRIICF
Chain of Eukaryotic translation initiation factor 4E (P63073 whole entry): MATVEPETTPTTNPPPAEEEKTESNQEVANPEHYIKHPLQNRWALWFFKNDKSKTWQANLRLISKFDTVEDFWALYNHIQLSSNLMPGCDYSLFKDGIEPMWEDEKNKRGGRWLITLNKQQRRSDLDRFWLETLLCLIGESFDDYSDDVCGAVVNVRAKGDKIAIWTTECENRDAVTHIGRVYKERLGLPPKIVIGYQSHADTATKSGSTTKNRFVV

CC(=O)N1c2ccc(S(=O)(=O)N3CCN(c4ccccc4)CC3)cc2CC1C (stereo not given)
IC50 [1]: 11.1 µM (active) | IC50 (HEK293): > 20 µM (inactive) | IC50 (Tumor necrosis factor): 14.1 µM (active)

CC(C)(C)c1ccc(C(=O)ON=C(N)c2ccccc2)cc1
EC50 [2]: 5.63 µM (active) | EC50 [3]: < 0.16 µM (active) | IC50 [1]: 2.84 µM (active) | IC50 (Tumor necrosis factor): 1.51 µM (active)

N=C(NCc1ccc2c(c1)OCO2)NC(=O)c1ccccc1
IC50 [4]: 17.3 µM (active) | IC50 [5]: 19 µM (active) | IC50 [6]: 24.1 µM (inactive) | IC50 [7]: > 80 µM (inactive) | IC50 (Hexokinase HKDC1): 25.8 µM (inactive) | AC50 [8]: 6.74 µM (active) | AC50 [9]: 17.2 µM (active)

CCCCCCCCCn1c2c(c(=N)c3c1CCC3)CCCC2
EC50 [10]: 3.44 µM (active) | EC50 [11]: 3.52 µM (active) | EC50 [12]: 6.11 µM (active) | EC50 [13]: 6.65 µM (active) | IC50 [14]: 42.1 µM (inactive) | EC50 [15]: 6.69 µM (active) | IC50 [16]: 4.68 µM (active) | EC50 (cells): 0.011 µM (active) | EC50 [17]: 60.2 µM (active) | EC50 [18]: < 0.1 µM (active)

O=C(c1cc(-c2ccco2)nc2ccccc12)N1CCC(c2ccccc2)C1 (stereo not given)
IC50 [19]: 13.6 µM (active) | IC50 [20]: > 56.8 µM (inactive)

COc1ccc(C(=O)/C=C2/C(=O)Nc3ccccc32)c(OC)c1
IC50 [21]: 19.5 µM (inactive) | EC50 [13]: 24.2 µM (inactive) | AC50 [22]: 5.87 µM (active)

CCNc1nc(NCC)n2c(SCC(=O)Nc3ccc(CC)cc3)nnc2n1
IC50 [23]: 75.6 µM (active)
